Tested on: subjects with pulmonary hypertension (WHO group I PAH, WHO group III PH)
Experiment: Right heart catheterization: right heart/pulmonary artery hemodynamics, thermodilution cardiac output, PVR and SVR after inhaled NO and nebulized nitrite
Assay type: in vivo, human
Procedure: A total of 6 subjects with a confirmed diagnosis of pulmonary hypertension and meeting all inclusion/exclusion criteria were enrolled in the study which entailed a single right heart catheterization. The study population consisted of subjects with WHO group I PAH (n=3) and subjects with WHO group III PH (n=3) which received the dose escalation paradigm:
During the study right heart/pulmonary artery hemodynamics were measured as well as noninvasive systemic blood pressure monitoring and simultaneous RV echocardiography. Subjects were tested for the changes in pulmonary vascular resistance (PVR) measured by right heart catheterization and using thermodilution cardiac output measurement at time zero, at times 15, 30 and 45 minutes after completion of each nebulization dose.
Following right heart catheterization, the patient was stabilized for 20 minutes. Baseline blood collections and hemodynamic measurements were performed, followed by treatment with 40 ppm inhaled NO gas for […] with repeat hemodynamic measurements performed.
After stopping inhaled NO gas, a single dose of sildenafil was given if patients were on background sildenafil therapy at previously prescribed doses. 45-minutes after sildenafil dose baseline hemodynamics were performed.
Subjects were monitored carefully during and after the study treatment.
The study was conducted at the 3rd FL Catheterization Laboratory at Presbyterian Hospital of the University of Pittsburgh Medical Center (UPMC). Baseline vasoreactivity was recorded after Inhaled NO at 40 ppm for […]. […] Subjects were instructed to breathe as calmly, and deeply as possible until no more mist was formed in the nebulizer chamber. Subjects were also instructed to hold their breath for approximately 10 seconds after inhalation to allow the study drug to reach deep into the lungs.

[1] = Patient 4, nitrite 45 mg inhaled, 15 min
[2] = Patient 4, nitrite 45 mg inhaled, 30 min
[3] = Patient 4, nitrite 45 mg inhaled, 45 min
[4] = Patient 4, nitrite 45 mg inhaled, 60 min
[5] = Patient 4, nitrite 90 mg inhaled, 15 min
[6] = Patient 4, nitrite 90 mg inhaled, 30 min
[7] = Patient 4, nitrite 90 mg inhaled, 45 min
[8] = Patient 4, nitrite 90 mg inhaled, 60 min
[9] = Patient 5, nitrite 45 mg inhaled, 15 min
[10] = Patient 5, nitrite 45 mg inhaled, 30 min
[11] = Patient 5, nitrite 45 mg inhaled, 45 min
[12] = Patient 5, nitrite 45 mg inhaled, 60 min

Q: Which results are given for O=NO [nitrite, sodium nitrite]?
A: mPAP (Patient 3, nitrite 90 mg inhaled, 60 min): 37.34; CI [1]: 3.07; CO [1]: 5.37; PAD [1]: 26; PAS [1]: 69; PCWP [1]: 7; PVR [1]: 6.21; PVR/SVR [1]: 0.36; RA [1]: 3; RVD [1]: 3; RVS [1]: 74; SVR [1]: 17.01; TPR [1]: 7.51; mPAP [1]: 40.34; CI [2]: 2.69; CO [2]: 4.7; PAD [2]: 24; PAS [2]: 70; PCWP [2]: 8; PVR [2]: 6.67; PVR/SVR [2]: 0.34; RA [2]: 4; RVD [2]: 3; RVS [2]: 67; SVR [2]: 19.58; TPR [2]: 8.37; mPAP [2]: 39.34; CI [3]: 2.71; CO [3]: 4.75; PAD [3]: 23; PAS [3]: 68; PCWP [3]: 9; PVR [3]: 6.11; PVR/SVR [3]: 0.32; RA [3]: 2; RVD [3]: 2; RVS [3]: 68; SVR [3]: 18.95; TPR [3]: 8.00; mPAP [3]: 38.01; CI [4]: 3.03; CO [4]: 5.31; PAD [4]: 21; PAS [4]: 69; PCWP [4]: 8; PVR [4]: 5.46; PVR/SVR [4]: 0.33; RA [4]: 3; RVD [4]: 2; RVS [4]: 68; SVR [4]: 16.57; TPR [4]: 6.97; mPAP [4]: 37.01; CI [5]: 3.08; CO [5]: 5.39; PAD [5]: 23; PAS [5]: 71; PCWP [5]: 8; PVR [5]: 5.75; PVR/SVR [5]: 0.39; RA [5]: 3; RVD [5]: 3; RVS [5]: 62; SVR [5]: 14.78; TPR [5]: 7.24; mPAP [5]: 39.01; CI [6]: 3.03; CO [6]: 5.3; PAD [6]: 22; PAS [6]: 70; PCWP [6]: 7; PVR [6]: 5.85; PVR/SVR [6]: 0.37; RA [6]: 4; RVD [6]: 3; RVS [6]: 70; SVR [6]: 15.73; TPR [6]: 7.17; mPAP [6]: 38.01; CI [7]: 3.08; CO [7]: 5.39; PAD [7]: 23; PAS [7]: 69; PCWP [7]: 7; PVR [7]: 5.81; PVR/SVR [7]: 0.39; RA [7]: 2; RVD [7]: 2; RVS [7]: 74; SVR [7]: 14.91; TPR [7]: 7.11; mPAP [7]: 38.34; CI [8]: 3.03; CO [8]: 5.3; PAD [8]: 21; PAS [8]: 67; PCWP [8]: 8; PVR [8]: 5.35; PVR/SVR [8]: 0.33; RA [8]: 2; RVD [8]: 3; RVS [8]: 70; SVR [8]: 16.04; TPR [8]: 6.86; mPAP [8]: 36.34; CI [9]: 2.80; CO [9]: 4.95; PAD [9]: 16; PAS [9]: 66; PCWP [9]: 3; PVR [9]: 5.99; PVR/SVR [9]: 0.48; RA [9]: 1; RVD [9]: 1; RVS [9]: 68; SVR [9]: 12.53; TPR [9]: 6.60; mPAP [9]: 32.67; CI [10]: 2.50; CO [10]: 4.43; PAD [10]: 15; PAS [10]: 66; PCWP [10]: 3; PVR [10]: 6.55; PVR/SVR [10]: 0.44; RA [10]: 1; SVR [10]: 14.75; TPR [10]: 7.22; mPAP [10]: 32.00; CI [11]: 2.75; CO [11]: 4.86; PA sat [11]: 60; PAD [11]: 14; PAS [11]: 67; PCWP [11]: 4; PVR [11]: 5.69; PVR/SVR [11]: 0.42; RA [11]: 1; SVR [11]: 13.65; TPR [11]: 6.52; mPAP [11]: 31.67; CI [12]: 2.52; CO [12]: 4.46; PAD [12]: 17; PAS [12]: 74

Source: US11986493B2 (University of Pittsburgh—Of the Commonwealth System of …, priority 2013, dated 2024)
